Data on one compound can be found in patent publication US20130136722A1, “Methods of Ex Vivo Expansion of Blood Progenitor Cells, and Generation of Composite Grafts” (The Board of Trustees of The University of Illinois, priority 2011, published 2013).

For test [1], the system named is promoter CpG sites (GATA1, S100A8, Cyp11A1). Briefly: Pyrosequencing of promoter CpG sites of genes in expanded CD34+ cells. Particulars: FIG. 5C. It counts as cell-based, human. The protocol: DNA methylation analysis was performed by EpigenDx (Worcester, Mass.) using quantitative pyrosequencing and the PSQ-HS96 system according to standard procedures (Warren et al., 2010, Cell Stem Cell. 7: 618-630). Primers were developed for the CpG sites near the promoter area as detailed in Table 3. Briefly, genomic DNA was isolated from primary or CMA expanded enriched CD34^+ cells using the Blood and Cell Culture DNA kit (Qiagen, Valencia Calif.). Genomic DNA was bisulfite treated by an EZ Methylation Kit (Zymo Research, Irvine, Calif.), and biotinylated gene specific primers or long interspersed nucleotide element 1 (LINE-1) primers were used to amplify regions of interest for analysis as described (Bhatia et al., 1997, J Exp Med. 186: 619-624).
Genomic DNA was isolated from primary, 5azaD/TSA or VPA expanded CD34^+ cells following culture using the Blood and Cell Culture DNA kit (Qiagen, Valencia Calif.). Genomic DNA was bisulfite treated by an EZ Methylation Kit (Zymo Research, Irvine, Calif.).

For test [2], the system named is histone H4 acetylation of gene promoter sites. Briefly: Chromatin immunoprecipitation (ChIP) assay with anti-acetyl-Histone H4 antibody. The format is cell-based, human. Particulars: FIG. 6B. Here is the method: The ChIP assay was carried out using a commercial Assay kit using the manufacturer's protocol (Millipore; Billerica, Mass.) as described (Sankar et al., 2008, Oncogene 27: 5717-5728). Briefly, after 72 hours of culture CD34^+ cells were crosslinked with formaldehyde and the cell pellet was lysed and sonicated to produce genomic fragments and immunoprecipitated using anti-acetyl-Histone H4 antibody (Millipore). Amplified PCR fragments were then analyzed on a 1.2% agarose gel.
In order to examine whether the alteration of gene expression observed in CD34^+ cells during ex vivo expansion culture with CMA was due to changes in histone acetylation, acetylation of histone H4 was analyzed for several gene promoter sites including HoxB4, Bmi1, GATA2, PU.1, as well as GAPDH as a control. Standard chromatin immunoprecipitation (ChIP) assays were used employing an antibody specific to acetylated histone H4 as described previously (Sankar et al., 2008, Oncogene 27:5717-28). […] More promoter fragments for Bmi1, HoxB4, and GATA2, and less fragments for PU.1 were amplified in 5azaD/TSA expanded CD34^+ cells as compared to control and VPA-expanded CD34^+ cells (FIG. 6B).

Test [3] concerns genes implicated in HSC self-renewal, differentiation, expansion and maintenance. Briefly: Real time quantitative PCR of gene transcripts in re-isolated expanded CD34+ cells. The format is cell-based, human. The protocol:
RNA preparation and real time quantative PCR assays were performed using SYBR green dye (Life Technologies; Carlsbad, Calif.) and an ABI 7500 Fast Real-Time PCR system (Life Technologies) were used to quantitate gene expression in reverse-transcribed mRNA as described (Araki et al., 2007, Id.). Gene expression was calculated by relative quantitation, and all results were normalized to expression of GAPDH.
To investigate whether treating cells with CMA altered gene expression, transcript levels of several genes associated with hematopoietic stem cell (HSC) self-renewal and differentiation were compared in unmanipulated primary CD34^+ cells (day 0) and CD34^+ cells expanded in the presence or absence of CMA (5azaD/TSA) during ex vivo culture. […] In the absence of 5azaD/TSA treatment, transcript levels of these genes were reduced over the course of 9 days of culture, correlating well with poor in vivo hematopoietic reconstitution capacity of untreated cells compared to unmanipulated primary or 5azaD/TSA expanded CD34^+ cells. […] In addition, transcript levels of CDK inhibitor P21, which regulates the G1/S transition of the cell cycle, was reduced in CD34^+ cells expanded in the absence of CMAs, but was not reduced in 5azaD/TSA expanded cells (p=0.06). Reduced P21 levels are generally associated with shorter G1/S transition and faster rate of cell divisions. […] This was also consistent with previous results showing membrane tracking dye as well as bromodeoxyuridine (BrdU) pulse chase assays of CD34^+CD90^+ cells during expansion culture (Araki et al., 2007, Blood 109: 3570-78).

For a further test, the system named is NOD/SCID mice. Briefly: SCID repopulating cell (SRC) frequency by limiting dilution analyses. The format is in vivo, mouse. Conditions: for (# of NOD/SCID mice engrafted)/(# of mice transplanted): Day 9. The protocol: Immunodeficient nonobese diabetic/ltsz-scid/scid (NOD/SCID) mice were purchased from Jackson Laboratories (Bar Harbor, Me.) and transplantation assays were performed as described (Araki et al., 2009, Id.; Araki et al., 2007, Id.; Taswell, 1981, Id.). Equal number of primary CD34^+ cells or the progeny of an equal initial number of CD34^+ cells following culture were injected per mouse intravenously. Mice were sacrificed 8 weeks after transplantation, and bone marrow (BM) cells from each mouse were analyzed by flow cytometry to detect multilineage human cell engraftment.
The frequency of SCID-repopulating cells (SRCs) present in VPA-expanded, CD34^+CD90^+ cord blood-derived stem cells was quantitated in comparison to unmanipulated primary cord blood cells by in vivo xeno-transplant studies using limiting dilution analyses as described previously (Conneally et al., 1997, Proc. Natl. Acad. Sci. 94: 9836-41; Bhatia et al., 1997, J Exp Med. 186: 619-24; Wang et al., 1997, Blood 89: 3919-24; Chute et al., 2005, Blood 105: 576-83). The frequency of SRC was 1 in 22,000 (95% Confidence Interval: 1/11,722-1/41,293) in primary CD34^+CD90^+ cells, and 1 in 21,720 (95% Confidence Interval: 1/11,160-1/42,269) in the VPA expanded cultures (Table 5 and FIG. 2E).

Test [4] concerns cobblestone area-forming cells (CAFC). Description: Cobblestone area-forming cell (CAFC) assay, limiting dilution on M2-10B4 stromal cells. It counts as cell-based, human. Conditions: for CAFC Frequency/10^4 cells: limiting dilution, mean ± SEM of three independent experiments. The protocol:
Colony-forming cell (CFC) were assayed by plating 5×10^2 cells per dish in semisolid media and were counted after 14 days as described (Araki et al., 2009, Id.). The number of cobble stone area-forming cell (CAFC) was quantitated in primary and expanded CD34+ cells by plating in limiting dilution onto irradiated M2-10B4 stromal cells as described (Araki et al., 2009, Id.; Conneally et al., 1997, Proc. Natl. Acad. Sci. USA. 94: 9836-9841; Taswell, 1981, J. Immunol. 126: 1614-1619).
In order to determine the a correlation between expansion of CD34^+CD90^+ cells and their functional potential as pluripotent hematopoietic stem cells, in vitro functional assays were performed, including assessment of colony-forming cells (CFC), a short-term assay, and cobblestone-area forming cells (CAFC), a long-term assay.

In the case of `CCCC(CCC)C(=O)O` [VPA, valproic acid], the “methylation levels of S100A8 and Cyp11A1 gene promoter sites” value in test [1] is given as “almost completely lacked any changes in methylation”. Moreover, in test [1], the “methylation of the GATA1 gene promoter” value is listed as “minimal demethylation”. For the same compound, the “histone H4 acetylation of the promoter regions of HoxB4, Bmi1 and GATA2 genes in contrast to control cultures” value in test [2] (CD34+ cells after 72 hours of culture) is listed as “Increased histone H4 acetylation”. The “levels of histone H4 acetylation for Bmi1 and HoxB4 genes compared to control cultures” value in test [2] is listed as “intermediate levels”. The “transcript levels of Alox5 in contrast to CD34+ cells expanded in 5azaD/TSA” value in test [3] is recorded as “significantly higher”. Besides, the “transcript levels of S100A8 and Alox5 in contrast to controls” value in test [3] (FIGS. 5A, 5B) is listed as “increased”. In test [3] (day 3, FIG. 3B), the “transcript levels of GATA1 compared with control cultures” value is “significantly increased”. Besides, the “(# of NOD/SCID mice engrafted)/(# of mice transplanted)” value with NOD/SCID mice (2,000 CD34+CD90+ cells used to initiate ex vivo culture) is on record as 0/7; with NOD/SCID mice (5,000 CD34+CD90+ cells used to initiate ex vivo culture), 2/5; in the test on NOD/SCID mice (10,000 CD34+CD90+ cells used to initiate ex vivo culture), 2/7; in the test with NOD/SCID mice (20,000 CD34+CD90+ cells used to initiate ex vivo culture), 5/8. The “SRC numbers during ex-vivo culture (in words)” value in the test on NOD/SCID mice (mouse, in vivo) was “maintained SRC numbers”. Further, in test [4] (FIG. 2B), the “fold expansion of long term (5 weeks) CAFC” value came to 8.4±1.6 fold. Moreover, the “CAFC Frequency/10^4 cells” value in test [4] is recorded as 14.67±0.74 /10^4 cells; in test [4] (listed as VPA Alone), 14.67 ± 0.74 /10^4 cells.
